According to patent publication US8377455B2, “Biosurfactant composition produced by a new Bacillus licheniforms strain, uses and products thereof” (priority 2008, dated 2013):
Like-named read-outs stand apart in the source and are kept apart here.

Key:
[1] = system: planktonic E. coli CFT073; test: Susceptibility of planktonic cultures to antibiotics with or without V9T14 (MIC by OD650, MBC by viable cell count); format: cell-based, Escherichia coli; settings: for change of MBC99.99% by V9T14 / effect of V9T14 on planktonic killing: 5 μg/mL V9T14; for concentration at which complete eradication of planktonic cells was observed: antibiotic plus 5 μg/mL V9T14; for MBC99.99%, AbBs: antibiotic plus 5 μg/mL V9T14 biosurfactant; for increase of planktonic killing by V9T14: at 2 μg/mL antibiotic; for MIC / MBC: Escherichia coli; for MBC: read-out: MBC99.99%, Ab
Experimental: (§1) Antibiotics were serially diluted (log2) using 0.9% saline in a 96-well microtiter plate, and then a solution of biosurfactant was added to each well to reach a final concentration of 5 μg/mL.
(§2) E. coli CFT073 biofilms were grown on the CBD at 37° C. for 24 h in a rotatory shaker at 130 rpm, as described above. Then CBD lid was rinsed twice with 0.9% saline, exposed to the antibiotics and antibiotic plus biosurfactant microtiter plate and incubated at 37° C., 125 rpm for 24 h. After exposure, the CBD was removed and the 96-well microtiter plate was used to estimate minimal inhibitory concentration (MIC) and minimal bactericidal concentration (MBC99.99%) values. For MIC value, the plate was read using a spectrophotometer at 650 nm, MIC was defined as the lowest concentration not presenting turbidity; according to the guidelines of the American Clinical Laboratory Standards Institute, the minimum bactericidal concentration (MBC) is conventionally defined as a concentration of an antimicrobial agent that kills 3 log10 cells of a bacterial culture (or 99.9% of the bacteria). In our experiments we used a more restrictive criterion, defining the MBC99.99% value, defined as the lowest concentration of the antibiotic activity higher than 4 log10 by viable cell count. Minimal biofilm eradication concentration (MBEC99.9%) was defined as the lowest concentration to eradicate 3 log10 of the viable microorganisms in a biofilm.
(§3) The difference attributed to synergy is expressed in Δ values between the log10 antibiotic cell count reduction and the log10 association value. “Eradication” was defined as no growth in antibiotic-free plates after planktonic culture initially incubated in antibiotic-containing LB broth.

[2] = system: E. coli CFT073 biofilm; test: Susceptibility of 24 h biofilm on CBD to antibiotics with or without V9T14 (MBEC, viable cell count, CLSM); format: cell-based, Escherichia coli; settings: for MBEC99.9%, Ab: 3 log10 reduction; for MBEC99.9%, AbBs: antibiotic plus 5 μg/mL V9T14 biosurfactant
Experimental: as §1, §2
Pegs were broken from the lid of the CBD using pliers (Harrison et al. 2006) and then rinsed once with 0.9% saline to remove planktonic forms. Prior to examination by CLSM, biofilms were fluorescently stained with acridine orange (AO) (Sigma Chemical Co., St. Louis, Mo., USA). To stain biofilms, pegs were immersed in 0.1% w/v AO in PBS for 5 min at room temperature in the dark. To determine live and dead cell distribution in antibiotic experiments, rinsed biofilms were stained with Syto-9 (6.7 μM) and propidium iodide (40 μM) (Live/Dead® BacLight™ Kit, Molecular Probes, Burlington, ON, Canada) at 30° C. for 30 min. Fluorescently stained biofilms were placed in two drops of 0.9% saline on the surface of a glass coverslip. These pegs were examined using a Leica DM IRE2 spectral confocal and multiphoton microscope with a Leica TCS SP2 acoustic optical beam splitter (AOBS) (Leica Microsystems, Richmond Hill, ON, Canada). To minimize or eliminate artefacts associated with single and/or simultaneous dual wavelength excitation, all dual labelled samples were sequentially scanned, frame-by frame, first at 476 or 488 nm and then at 543 nm. Fluorescence emission Δ was then sequentially collected in the green and red regions of the spectrum, respectively. Line averaging (×2) was used to capture images with reduced noise. A 63× water immersion objective was used in all imaging experiments. Image capture and two dimensional projections of z-stacks were performed using Leica Confocal Software (LCS, Leica Microsystems).
as §3

[3] = antibiotic alone, 24 h, 4 log10 reduction
[4] = 24 h, antibiotic alone, 24 h, OD650, read-out: MIC, Ab
[5] = antibiotic without V9T14 (figure legend), read-out: MIC value used in FIG. 21

Row | SMILES | change of MBC99.99% by V9T14 [1] | planktonic population reduction ([1]; antibiotic alone at 1 μg/mL) [log10] | MIC, Ab ([1]; antibiotic alone, 24 h, OD650) [mg/L] | concentration at which complete eradication of planktonic cells was observed [1] [µg/mL] | MBC99.99%, AbBs ([1]; 24 h) [mg/L] | increase of planktonic killing by V9T14 [1] [log10] | MBEC99.9%, Ab ([2]; antibiotic alone, 24 h) [µg/mL] | MBEC99.9%, AbBs ([2]; 24 h) [µg/mL] | effect of V9T14 on planktonic killing [1] | MIC [1, 4] [mg/L] | MIC [1, 5] [mg/L] | MBC [1, 3] [mg/L] | change of MBEC99.9% by V9T14 ([2]; 5 μg/mL V9T14) | biofilm reduction ([2]; antibiotic alone at 4 μg/mL) [log10] | further results
1 | CO/N=C(\C(=O)N[C@@H]1C(=O)N2C(C(=O)O)=C(CSc3nc(=O)c(O)nn3C)CS[C@H]12)c1csc(N)n1 [Cefriaxone, ceftriaxone] | not modified | 7 | 1 to 2 | 2 | 0.5 to 1 | 1.7 | 1 to 2 | 0.5 to 1 |  |  |  |  |  |  | planktonic population reduction ([1]; antibiotic alone at 0.5 μg/mL): 3 log10; MBC99.99%, Ab [1, 3]: 0.5 to 1 mg/L; MIC value used in FIG. 21 ([1]; antibiotic without V9T14 (figure legend)): 1 mg/L; final enhancement of biofilm removal by V9T14 ([2]; 2 μg/mL antibiotic): 1.2 log10; enhancement of biofilm removal by V9T14 ([2]; 0.25-0.5 μg/mL antibiotic): 0.6 log10; biofilm reduction ([2]; antibiotic alone at 1 μg/mL): 3 log10; further increase of biofilm removal by V9T14 ([2]; for 2 μg/mL antibiotic, on top of the 0.25-0.5 μg/mL increase): 0.6 log10
2 | CCN1CCN(C(=O)N[C@@H](C(=O)N[C@@H]2C(=O)N3[C@@H]2SC(C)(C)[C@@H]3C(=O)O)c2ccccc2)C(=O)C1=O [Piperacillin, piperacillin] | not affected |  |  |  | >32 |  | >32 | >32 | no improvement | > 32 | 32 | > 32 | not affected | 1 | planktonic population reduction ([1]; antibiotic alone at 4 μg/mL): 2.7 log10; effect of V9T14 on biofilm killing ([2]; 5 μg/mL V9T14): no improvement; synergy with V9T14 (criterion ≧1 log10 decrease) ([2]; 24 h exposure): not able to satisfy our discrimination criterion for synergy identification
3 | O=C(O)c1cn(C2CC2)c2cc(N3CCNCC3)c(F)cc2c1=O [Ciprofloxacin, ciprofloxacin] | not modified | 6.8 |  |  | 0.25 to 0.5 | 1.4 |  |  |  | 8 to 16 |  | 0.25 to 0.5 |  |  | 
4 | Cc1nnc(SCC2=C(C(=O)O)N3C(=O)[C@@H](NC(=O)Cn4cnnn4)[C@H]3SC2)s1 [Cefazolin, cefazolin] |  |  | 1 to 2 | 32 | 8 |  |  | 8 |  |  | 8 | 16 |  |  | maximum planktonic killing effect ([1]; 32 μg/mL antibiotic plus V9T14): 8.4 log10; MIC ([1]; 24 h, antibiotic plus 5 μg/mL V9T14, 24 h, OD650, read-out: MIC with V9T14): 8 mg/L; planktonic killing ([1]; antibiotic alone at 16 μg/mL): more than 4 log10 cfu/mL; maximum planktonic killing effect ([1]; antibiotic alone at 32 μg/mL): 6.9 log10; MIC, Ab ([1]; antibiotic alone, 24 h, OD650, listed as cefazolin): 16 mg/L; biofilm reduction ([2]; antibiotic alone, up to highest concentration tested): about 2.2 log10
5 | NC[C@H]1O[C@H](O[C@H]2[C@H](O)[C@@H](O[C@H]3O[C@H](CO)[C@@H](O)[C@H](N)[C@H]3O)[C@H](N)C[C@@H]2N)[C@H](N)C[C@@H]1O [Tobramycin, tobramycin] | not modified |  |  |  | 8 to 16 |  | 2 to 4 | 2 to 4 | no increase of activity | 16 to 32 | 16 | 8 to 16 | not modified |  | planktonic growth, OD650 ([1]; 4 μg/mL antibiotic alone): 0.31; planktonic growth, OD650 ([1]; 4 μg/mL antibiotic plus 5 μg/mL V9T14): 0.18; concentration giving complete eradication of planktonic population ([1]; antibiotic alone): 16 µg/mL; planktonic population reduction ([1]; antibiotic alone up to 8 μg/mL): 1 log10; increased efficacy against sessile forms by V9T14 ([2]; 16 μg/mL antibiotic): 1 log10; effect on mature biofilm by CLSM (Live/Dead) ([2]; 16 μg/mL antibiotic alone): significant killing of biofilm population; mature biofilm reduction by CLSM (Live/Dead) ([2]; 16 μg/mL antibiotic plus 5 μg/mL V9T14): further increased; biofilm survival subpopulation ([2]; antibiotic alone at 8-16 μg/mL): about 10^2 cfu/mL; biofilm decrease ([2]; antibiotic alone, stabilizing at 8-16 μg/mL): 4 log10
6 | CC1(C)S[C@@H]2[C@H](NC(=O)[C@H](N)c3ccccc3)C(=O)N2[C@H]1C(=O)O [Ampicillin, ampicillin] | not modified |  |  | 8 | 1 to 2 |  | 4 | 0.5 to 1 |  | 2 to 4 | 2 | 1 to 2 |  | 3 | surviving planktonic population ([1]; antibiotic alone up to 16 μg/mL): 10^2 cfu/mL; increase of planktonic killing efficacy by V9T14 ([1]; concentration not given): 2 log10; surviving biofilm population ([2]; 1 μg/mL antibiotic plus V9T14): 10^1 cfu/peg; biofilm subpopulation remaining viable ([2]; antibiotic alone, 24 h): 10^3 cfu/peg; concentration at which sessile forms were eradicated ([2]; antibiotic plus V9T14): 8 µg/mL; effect on adherent biofilm cells ([2]; association of V9T14 with the antibiotic): complete eradication; enhancement of antibiotic effect on biofilm by V9T14 ([2]; at 1 μg/mL antibiotic): 4 log10
